Laboratory results: PubChem BioAssay (NCI)
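The compound was tested at five concentrations on cells cultured in 96-well plates, with a 48-hour exposure period. TGI denotes the concentration required for complete inhibition of growth.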

System: SN12K1 renal
Assay: inhibition of tumour cell growth, NCI panel, 48 h

With `O=C1NC2(CCCCC2)C(=O)N1CCN(CCCl)CCCl` the TGI was over 250 µM.
